Test systems include OVCAR-3 ovarian; NCI-H460 lung; HL-60(TB) leukemia; SNB-19 CNS; SK-OV-3 ovarian; EKVX NSCLC; HT29 colon; COLO 205 colon; MDA-MB-435; MALME-3M melanoma.
Assay in all cases: NCI-60 cell line screen, 48 h

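These data come from cells grown in 96-well plates and exposed to compound for 48 hours at five concentrations. At the GI50, growth is halved. TGI denotes the concentration required for complete inhibition of growth.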

As for `CC(C)(C)c1cc(O)c(O)c(C(C)(C)C)c1`, the GI50 in the experiment on OVCAR-3 ovarian was 1.93 µM; in the experiment with NCI-H460 lung it was 3 µM; in the experiment on HL-60(TB) leukemia, 2.69 µM; in the experiment with SNB-19 CNS it was 7.3 µM; with SK-OV-3 ovarian, 10.3 µM; in the experiment on EKVX NSCLC it was 3.76 µM. The GI50 is 2.9 µM in the experiment with HT29 colon, 3.61 µM in the experiment on COLO 205 colon, 3.3 µM with MDA-MB-435 and 3.13 µM in the experiment with MALME-3M melanoma. Also, the TGI in the experiment on OVCAR-3 ovarian worked out at 3.38 µM; in the experiment on NCI-H460 lung, 10 µM; in the experiment with HL-60(TB) leukemia it was 6.8 µM; in the experiment with SNB-19 CNS it was 20.3 µM; in the experiment on SK-OV-3 ovarian, 22.6 µM; in the experiment with EKVX NSCLC, 17.5 µM. Besides, the TGI with HT29 colon is 6.71 µM; in the experiment on COLO 205 colon it was 12.2 µM; in the experiment on MDA-MB-435, 14.1 µM; in the experiment on MALME-3M melanoma, 9.71 µM.
Turning to `Cc1cc([C@@H](C)Nc2ccccc2C(=O)O)c2nc(N3CCOCC3)cc(=O)n2c1`, the GI50 in the experiment with OVCAR-3 ovarian is 6.02 µM; with NCI-H460 lung, above 10 µM; with HL-60(TB) leukemia, 5.5 µM; in the experiment on SNB-19 CNS, above 10 µM; in the experiment on SK-OV-3 ovarian, 1.08 µM; with EKVX NSCLC, above 10 µM. Moreover, the GI50 in the experiment on HT29 colon, in the experiment with COLO 205 colon, in the experiment on MDA-MB-435 and in the experiment with MALME-3M melanoma was above 10 µM throughout. Further, the TGI in the experiment on OVCAR-3 ovarian, in the experiment on NCI-H460 lung, in the experiment on HL-60(TB) leukemia, in the experiment with SNB-19 CNS, in the experiment with SK-OV-3 ovarian and with EKVX NSCLC was above 10 µM each time. For the same compound, the TGI in the experiment on HT29 colon, in the experiment with COLO 205 colon, in the experiment with MDA-MB-435 and in the experiment with MALME-3M melanoma was above 10 µM throughout.
Turning to `COC(=O)C(=O)CC(=O)CCn1ncc(Cl)c(Cl)c1=O`, the TGI with OVCAR-3 ovarian stood at 17.8 µM; in the experiment with NCI-H460 lung it was 32.3 µM; with HL-60(TB) leukemia, 9.68 µM; in the experiment on SNB-19 CNS it was 32.5 µM; in the experiment on SK-OV-3 ovarian, 40.8 µM; in the experiment with EKVX NSCLC it was 33.8 µM. Besides, the TGI with HT29 colon worked out at 15 µM; in the experiment on COLO 205 colon, 31.8 µM; in the experiment with MDA-MB-435, 12.8 µM; in the experiment with MALME-3M melanoma it was 21.3 µM. In addition, the GI50 in the experiment with MDA-MB-435 is 3.37 µM.
Turning to `CCOc1ccc(S(=O)(=O)/N=C2\C=C(SCC(=O)O)C(=O)c3ccccc32)cc1`, the GI50 with OVCAR-3 ovarian was 1.88 µM; in the experiment on NCI-H460 lung it was 12.4 µM; in the experiment with HL-60(TB) leukemia, 2.35 µM; in the experiment with SNB-19 CNS, 3.42 µM; in the experiment on SK-OV-3 ovarian, 15.2 µM; in the experiment with EKVX NSCLC, 3.29 µM. Also, the GI50 with HT29 colon was 3.21 µM; in the experiment with COLO 205 colon, 3.68 µM; with MDA-MB-435, 1.75 µM; in the experiment with MALME-3M melanoma it was 2.13 µM. For the same compound, the TGI amounted to 12.2 µM in the experiment on OVCAR-3 ovarian; 28.2 µM with NCI-H460 lung; 6.99 µM in the experiment with HL-60(TB) leukemia; 12.1 µM in the experiment on SNB-19 CNS; 29.7 µM in the experiment on SK-OV-3 ovarian; 11.3 µM in the experiment on EKVX NSCLC. Also, the TGI in the experiment with HT29 colon stood at 13 µM; with COLO 205 colon, 14 µM; with MDA-MB-435, 3.63 µM; in the experiment on MALME-3M melanoma it was 3.69 µM.
`CSc1nc(SC)c2c(CN=[N+]=[N-])c(Br)n(Cc3ccccc3)c2n1`: the TGI with OVCAR-3 ovarian, in the experiment on NCI-H460 lung, in the experiment with HL-60(TB) leukemia, with SNB-19 CNS, in the experiment on SK-OV-3 ovarian and in the experiment on EKVX NSCLC was above 100 µM throughout. The TGI with HT29 colon, in the experiment on COLO 205 colon, in the experiment on MDA-MB-435 and with MALME-3M melanoma was above 100 µM each time.
Take `CN1CCN(Cc2ccc(C(=O)Nc3cncc(C#Cc4cnc(N)c5ccccc45)c3)cc2C(F)(F)F)CC1`: the GI50 in the experiment with OVCAR-3 ovarian was 1.95 µM; with NCI-H460 lung, 1.76 µM; with HL-60(TB) leukemia, 1.12 µM; with SNB-19 CNS it was 2.49 µM; with SK-OV-3 ovarian it was 10.8 µM; with EKVX NSCLC it was 1.99 µM. In addition, the GI50 is 2.05 µM with HT29 colon, 3.69 µM in the experiment with COLO 205 colon, 1.71 µM with MDA-MB-435 and 1.71 µM in the experiment on MALME-3M melanoma. In addition, the TGI in the experiment with OVCAR-3 ovarian was 3.71 µM; in the experiment with NCI-H460 lung, 3.39 µM; in the experiment with HL-60(TB) leukemia it was 2.99 µM; with SNB-19 CNS it was 5.69 µM; with SK-OV-3 ovarian, 22.9 µM; in the experiment on EKVX NSCLC, 6.06 µM. Moreover, the TGI in the experiment with HT29 colon was found to be 5.02 µM; in the experiment on COLO 205 colon it was 13.3 µM; with MDA-MB-435 it was 3.12 µM; in the experiment with MALME-3M melanoma it was 3.25 µM.
Regarding `CC(=O)OCC1OC(O[C@@H]2C[C@H]3C(C)(C)[C@H](OC(C)=O)CC[C@]3(C)[C@H]3CCC4=C([C@@H](C)C[C@@H](O)[C@H](O)C(C)(C)O)CC[C@@]4(C)[C@@]32C)C(O)C(O)C1O` (stereo partly specified), the GI50 with OVCAR-3 ovarian is 14.4 µM; in the experiment with NCI-H460 lung it was 16 µM; with HL-60(TB) leukemia it was 13 µM; in the experiment on SNB-19 CNS it was 14.3 µM; in the experiment with SK-OV-3 ovarian, 17.9 µM; with EKVX NSCLC, 16.9 µM. Besides, the GI50 is 16.6 µM with HT29 colon, 16 µM with COLO 205 colon, 16 µM with MDA-MB-435 and 16.5 µM with MALME-3M melanoma. Moreover, the TGI was found to be 27.8 µM in the experiment with OVCAR-3 ovarian; 29.8 µM in the experiment with NCI-H460 lung; 28.8 µM in the experiment on HL-60(TB) leukemia; 27.7 µM in the experiment on SNB-19 CNS; 32.1 µM in the experiment on SK-OV-3 ovarian; 31 µM in the experiment with EKVX NSCLC. Also, the TGI was determined as 30.2 µM in the experiment with HT29 colon, 30.2 µM with COLO 205 colon, 29.5 µM in the experiment with MDA-MB-435 and 30.4 µM with MALME-3M melanoma.
`CC(CO)(CO)N=Cc1cc(I)cc(I)c1O`: the TGI is 29.2 µM with OVCAR-3 ovarian; 55 µM with NCI-H460 lung; 29.6 µM in the experiment with HL-60(TB) leukemia; 48.9 µM in the experiment with SNB-19 CNS; 41.9 µM in the experiment with SK-OV-3 ovarian; 54.2 µM in the experiment with EKVX NSCLC. Also, the TGI with HT29 colon turned out to be 44.6 µM; in the experiment on COLO 205 colon it was 35.3 µM; in the experiment with MDA-MB-435 it was 40.3 µM; in the experiment with MALME-3M melanoma, 28.5 µM.
Take `O=C(CCN1CCN(c2cnc3ccccc3n2)CC1)c1csc2ccccc12`: the GI50 in the experiment on OVCAR-3 ovarian is 25 µM; with NCI-H460 lung it was above 100 µM; with HL-60(TB) leukemia it was 35.2 µM; with SNB-19 CNS, above 100 µM; in the experiment with SK-OV-3 ovarian, above 100 µM; in the experiment on EKVX NSCLC, 36 µM. In addition, the GI50 in the experiment on HT29 colon is 38.4 µM; in the experiment with COLO 205 colon it was 24.9 µM; in the experiment on MDA-MB-435, above 100 µM; with MALME-3M melanoma, 24.9 µM. Besides, the TGI with OVCAR-3 ovarian is 61.5 µM; in the experiment with NCI-H460 lung, above 100 µM; with HL-60(TB) leukemia, above 100 µM; in the experiment with SNB-19 CNS, above 100 µM; with SK-OV-3 ovarian, above 100 µM; in the experiment on EKVX NSCLC it was above 100 µM. In addition, the TGI with HT29 colon is above 100 µM; in the experiment with COLO 205 colon it was 59 µM; in the experiment on MDA-MB-435, above 100 µM; with MALME-3M melanoma, 69.1 µM.
For `CN(C)CC(=O)N1CCC(c2ccc(NC(=O)c3ncc(C#N)[nH]3)c(C3=CCCCC3)c2)CC1`, the GI50 in the experiment with OVCAR-3 ovarian was 15.7 µM; in the experiment on NCI-H460 lung it was 7.83 µM; in the experiment with HL-60(TB) leukemia, 2.99 µM; in the experiment on SNB-19 CNS, 11.8 µM; in the experiment with SK-OV-3 ovarian it was 5.33 µM; with EKVX NSCLC, 14.1 µM. Further, the GI50 in the experiment on HT29 colon is 2.8 µM; with COLO 205 colon, 4.43 µM; with MDA-MB-435, 2.99 µM; in the experiment on MALME-3M melanoma, 4.3 µM. For the same compound, the TGI turned out to be 29.6 µM with OVCAR-3 ovarian; 23.4 µM in the experiment with NCI-H460 lung; 8.86 µM with HL-60(TB) leukemia; 25.2 µM in the experiment with SNB-19 CNS; 17.4 µM in the experiment with SK-OV-3 ovarian; 28 µM with EKVX NSCLC. Also, the TGI in the experiment with HT29 colon is 10.2 µM; in the experiment on COLO 205 colon, 14.1 µM; in the experiment on MDA-MB-435, 12.6 µM; in the experiment on MALME-3M melanoma, 16.1 µM.
For `Brc1cccc(-c2cc(-c3ccc4c(c3)OCCO4)[nH]n2)c1`, the GI50 in the experiment on OVCAR-3 ovarian is 0.718 µM; in the experiment on NCI-H460 lung, 0.877 µM; in the experiment with HL-60(TB) leukemia, 0.891 µM; with SNB-19 CNS it was 3.05 µM; with SK-OV-3 ovarian, 1.69 µM; with EKVX NSCLC it was 7.21 µM. The GI50 is 0.804 µM in the experiment on HT29 colon, 1.03 µM in the experiment with COLO 205 colon, 0.186 µM in the experiment with MDA-MB-435 and 1.3 µM in the experiment on MALME-3M melanoma. In addition, the TGI with OVCAR-3 ovarian is 2.27 µM; in the experiment on NCI-H460 lung, 6.07 µM; in the experiment on HL-60(TB) leukemia, 17.5 µM; in the experiment with SNB-19 CNS, 50.5 µM; in the experiment with SK-OV-3 ovarian, 43.6 µM; in the experiment on EKVX NSCLC, 49.6 µM. The TGI in the experiment with HT29 colon turned out to be 27.4 µM; in the experiment with COLO 205 colon it was 26 µM; in the experiment on MDA-MB-435, 0.97 µM; in the experiment on MALME-3M melanoma, 53.4 µM.
Regarding `Cc1ccn2c3c(c(C(=O)O)c2c1)C(=O)c1ccccc1C3=O`, the GI50 was 2.9 µM with OVCAR-3 ovarian; 1.36 µM with NCI-H460 lung; above 100 µM with HL-60(TB) leukemia; 4.24 µM in the experiment on SNB-19 CNS; above 100 µM in the experiment on SK-OV-3 ovarian; 48 µM with EKVX NSCLC. For the same compound, the GI50 was 4.61 µM with HT29 colon, 2.62 µM in the experiment with COLO 205 colon, 1.57 µM in the experiment with MDA-MB-435 and 0.48 µM in the experiment with MALME-3M melanoma. The TGI in the experiment on OVCAR-3 ovarian is above 70.3 µM; in the experiment with NCI-H460 lung, 3.07 µM; in the experiment with HL-60(TB) leukemia it was above 100 µM; in the experiment on SNB-19 CNS it was above 100 µM; with SK-OV-3 ovarian, above 100 µM; in the experiment on EKVX NSCLC, above 100 µM. Further, the TGI with HT29 colon was above 100 µM; with COLO 205 colon, 8.75 µM; in the experiment with MDA-MB-435 it was 3.05 µM; in the experiment with MALME-3M melanoma, 1.92 µM.

These data come from PubChem BioAssay (NCI).
